The nature of data set [1]: Selectivity ratio of EC50 for mouse NIH3T3 cells to EC50 for human A2780 cells. The data set is classed as toxicity. Particulars: NIH3T3 cells versus A2780 cells, read-out: Ratio EC50.
The test system of the next data set is FaDu. The data set is described as follows: Cytotoxicity against human FaDu cells assessed as reduction in cell viability incubated for 72 hrs by SRB assay. The data set is classed as functional, cell-based. Particulars: Homo sapiens, FaDu, 72 h; read-out: EC50.
Data set [2] can be described thus: Selectivity ratio of EC50 for mouse NIH3T3 cells to EC50 for human A375 cells. Type of data set: toxicity. As to conditions: NIH3T3 cells versus A375 cells, read-out: Ratio EC50.
For another data set, the system named is NIH3T3. The data set is described as follows: Cytotoxicity against mouse NIH3T3 cells assessed as reduction in cell viability incubated for 72 hrs by SRB assay. The data set is classed as cell-based. As to conditions: Mus musculus, NIH3T3, 72 h; read-out: EC50.
Another data set relates to A2780. Kind of data set: Cytotoxicity against human A2780 cells assessed as reduction in cell viability incubated for 72 hrs by SRB assay. The data set is classed as functional, cell-based. Particulars: Homo sapiens, A2780, 72 h; read-out: EC50.
For a further data set, the system named is HT-29. Kind of data set: Cytotoxicity against human HT-29 cells assessed as reduction in cell viability incubated for 72 hrs by SRB assay. Type of data set: functional, cell-based. As to conditions: Homo sapiens, HT-29, 72 h; read-out: EC50.
Another data set concerns A-375. The data set is described as follows: Cytotoxicity against human A-375 cells assessed as reduction in cell viability incubated for 72 hrs by SRB assay. Type of data set: functional, cell-based. Particulars: Homo sapiens, A-375, 72 h; read-out: EC50.
The test system of the next data set is MCF7. The data set is described as follows: Cytotoxicity against human MCF7 cells assessed as reduction in cell viability incubated for 72 hrs by SRB assay. Type of data set: functional, cell-based. Particulars: Homo sapiens, MCF7, 72 h; read-out: EC50.
Data set [3] in a line: Selectivity ratio of EC50 for mouse NIH3T3 cells to EC50 for human HT-29 cells. The data set is classed as toxicity. Particulars: NIH3T3 cells versus HT-29 cells, read-out: Ratio EC50.
The nature of data set [4]: Selectivity ratio of EC50 for mouse NIH3T3 cells to EC50 for human MCF7 cells. The data set is classed as toxicity. Particulars: NIH3T3 cells versus MCF7 cells, read-out: Ratio EC50.
The nature of data set [5]: Selectivity ratio of EC50 for mouse NIH3T3 cells to EC50 for human FaDu cells.

The record followed here is ChEMBL document CHEMBL4765454, “Betulinic acid derived amides are highly cytotoxic, apoptotic and selective” (Eur J Med Chem, 2020).

For `C=C(C)[C@@H]1CC[C@]2(C(=O)O)CC[C@]3(C)[C@H](CC[C@@H]4[C@@]5(C)C[C@H](OC(C)=O)[C@H](OC(C)=O)C(C)(C)[C@@H]5CC[C@]43C)[C@@H]12`, the selectivity ratio in [1] was 1.6; in data set [2], 0.9; in data set [3], 0.8; in data set [4], 1.3. The EC50 with FaDu amounted to 13.5 µM; with NIH3T3 it was 14.1 µM; with A2780 it was 8.68 µM; in the data set on HT-29, 17.4 µM; in the data set with A-375, 15.8 µM; with MCF7, 11.2 µM. For the same molecule, in data set [5], the “Ratio EC50” value is recorded as 1.

On to `CC(=O)O[C@H]1C[C@]2(C)[C@H]3CC[C@@H]4[C@H]5[C@H](C(C)=O)CC[C@]5(C(=O)O)CC[C@@]4(C)[C@]3(C)CC[C@H]2C(C)(C)[C@H]1OC(C)=O`, for which the selectivity ratio turned out to be 0.3 in data set [1], 0.4 in data set [2], 0.3 in [3] and 0.3 in data set [4]. The 50% effective concentration (EC50) in the data set with FaDu is above 30 µM; with NIH3T3, 9.57 µM; in the data set with A2780 it was above 30 µM; in the data set with HT-29 it was above 30 µM; in the data set on A-375, 22.5 µM; with MCF7 it was above 30 µM. In addition, in data set [5], the “Ratio EC50” value is given as 0.3.

For `C=C(C)[C@@H]1CC[C@]2(C(=O)O)CC[C@]3(C)[C@H](CC[C@@H]4[C@@]5(C)C=C(O)C(=O)C(C)(C)[C@@H]5CC[C@]43C)[C@@H]12`, the selectivity ratio worked out at 1.2 in data set [1], 0.9 in data set [2], 0.5 in data set [3] and 1.1 in data set [4]. Moreover, the EC50 in the data set on FaDu turned out to be 14.1 µM; with NIH3T3, 12.8 µM; with A2780 it was 10.5 µM; in the data set with HT-29 it was 26.1 µM; with A-375, 13.8 µM; with MCF7, 12 µM. Further, in data set [5], the “Ratio EC50” value amounted to 0.9.

For `C=C(C)[C@@H]1CC[C@]2(C(=O)O)CC[C@]3(C)[C@H](CC[C@@H]4[C@@]5(C)C[C@H](O)[C@H](O)C(C)(C)[C@@H]5CC[C@]43C)[C@@H]12`, the selectivity ratio in data set [1] came out at 1.4; in data set [2] it was 1.5; in data set [3], 1; in [4] it was 1.1. Further, the EC50 in the data set with FaDu came out at 16.5 µM; in the data set on NIH3T3, 17.3 µM; with A2780 it was 12.3 µM; with HT-29 it was 17.7 µM; in the data set on A-375, 11.2 µM; in the data set with MCF7, 15.8 µM. Besides, the “Ratio EC50” value in [5] was 1.
